Laboratory results: patent US6207677A, “Piperidine derivatives having anxiolytic effect” (H. Lundbeck A/S, priority 1991, dated 2001)

Target: sigma receptors
Test: Inhibition of 3H-DTG binding to sigma receptors in rat brain in vitro
Conditions: 2 nM 3H-DTG, rat brain without cerebellum, 25° C., 20 min
Method: INHIBITION OF 3H-DTG BINDING TO SIGMA RECEPTORS IN RAT BRAIN IN VITRO
By this method the inhibition by drugs of the binding of 2 nM ^3 H-DTG (1,3,di-o-tolyl guanidine) to sigma receptors in homogenates or membranes from rat brain without cerebellum is determined in vitro as modified from Weber et al. Proc. Natl. Acad. Sci. 1986, 83,8784.
Homogenate: Rats (150-250 g) are decapitated and the brains (without cerebellum) quickly removed and placed on ice, weighed and homogenized in 100 vol ice-cold (0° C.) 50 mM Tris-buffer (pH 7.7) in an ethanol rinsed glass/teflon homogenizer at 0° C. and kept on ice until use.
P2-membranes: Brains are homogenized in 10 vol 0.32 M sucrose in an ethanol rinsed glass/teflon homogenizer with 10 strokes up and down. The homogenate is centrifuged for 10 min at 900×gm at 4° C. The supernatant is decanted and centrifuged for 20 min at 50,000 gm at 4° C. The resulting pellet is resuspended in 10 vol ice-cold […] Tris-buffer (pH 7.7) and incubated for 30 min. at 37° C. The membrane suspension is then centrifuged for further 20 min. at 50,000 gm at 4° C. The pellet is resuspended in 50 vol. of ice-cold Tris-buffer and used immediately.
0.5 ml 50 mM Tris-buffer (pH 7.7), 0.25 ml displacer (6×100 μM DTG, 6× [test compound], or Tris-buffer), and 0.25 ml 6×2 nM. ^3 H-DTG are mixed into 5 ml s plastic test tubes and kept at 4° C. until use. The binding reaction is initiated by mixing 0.5 ml tissue suspension into this solution and incubate at 25° C. for 20 min. Glass fiber filters (Whatman GF/B) are placed on the filter machine which is then closed tightly. Just before filtration vacuum is applied, and the filters washed with 0.1% PEI solution from a spray bottle followed by one wash with Tris-buffer.
The binding reaction is stopped by filtration of the assay mixture at reduced pressure (750 mbar) followed by further 3 washes with 5 ml ice-cold Tris-buffer. The filters are then placed in counting vials and 4 ml scintillation solution added. The vials are counted in a Beckmann scintillation counter.
50 mM Tris-buffer pH 7.7: 7.38 g Trizma--7.7 plus distilled H2 O ad 1 liter. 100 ml 10% polyethylenimine (PEI): 100 ml dest. H2 O is added to approx. 20 g 50% PEI which is solubilized by stirring and heating. Diluted (1+99) before use. 6×2 nM ^3 H-DTG: The exact volume depends on the actual concentration of the batch, but is made as close as possible to 12 nM. The containers for the radioactive solution is rinsed in 96% ethanol before use.
^3 H-DTG was obtained from NEN Research Products, Du Pont Denmark. Specific activity 62.3 Ci/mmol.
The known sigma receptor ligands BMY 14802 and rimcazole were included in the test for comparison purposes.

Structure (SMILES): c1ccc2c(c1)COC21CCN(CCCCc2csc3ccccc23)CC1 [Compound 10a, 1'-(4-(Benzo[b]thiophen-3-yl)-1-butyl)spiro[isobenzofuran-1(3H),4'-piperidine]]
- IC50: 0.09 nM

Structure (SMILES): c1ccc2c(c1)COC1(CCN(CCCCc3csc4ccccc34)CC1)C2 [Compound 10b, 1,4-Dihydro-1'-(4-(benzo[b]thiophen-3-yl)-1-butyl)spiro[3H-2-benzopyran-3,4'-piperidine]]
- IC50: 1.3 nM

Structure (SMILES): Cc1ccc2scc(CCCCN3CCC4(CC3)OCc3ccccc34)c2c1 [Compound 10c, 1'-(4-(5-Methylbenzo[b]thiophen-3-yl)-1-butyl)spiro[isobenzofuran-1(3H),4'-piperidine]]
- IC50: 0.35 nM

Structure (SMILES): Fc1ccc(C2CCN(CCCC3COc4ccc(F)cc43)CC2)cc1 (stereo not drawn) [Compound 11a, 2,3-Dihydro-5-fluoro-3-[3-(4-(4-fluorophenyl)-1-piperidinyl)-1-propyl]benzofuran]
- IC50: 0.31 nM

Structure (SMILES): Fc1ccc2c(c1)C(CCCCN1CCC3(CC1)OCc1ccccc13)CO2 (stereo not drawn) [Compound 12, 1'-(4-(2,3-Dihydro-5-fluoro-benzofuran-3-yl)-1-butyl]-spiro[isobenzofuran-1(3H),4'-piperidine]]
- IC50: 0.3 nM

Structure (SMILES): c1ccc2c(c1)NCC2CCCCN1CCC2(CC1)Oc1ccccc1O2 (stereo not drawn) [Compound 13a, 1'-[4-(2,3-Dihydro-3-indolyl)-1-butyl]spiro[1,3-benzodioxole-2,4'-piperidine]]
- IC50: 3.7 nM

Structure (SMILES): c1ccc2c(c1)COC21CCN(CCCCC2CNc3ccccc32)CC1 (stereo not drawn) [Compound 13b, 1'-[4-(2,3-Dihydro-3-indolyl)-1-butyl]spiro[isobenzofuran-1(3H),4'-piperidine]]
- IC50: 1 nM

Structure (SMILES): c1ccc2c(c1)COCC21CCN(CCCCC2CNc3ccccc32)CC1 (stereo not drawn) [Compound 13c, 1'-[4-(2,3-Dihydro-3-indolyl)-1-butyl]spiro[1H-2-benzopyran-4(3H) ,4'-piperidine]]
- IC50: 4.8 nM

Structure (SMILES): COc1ccccc1C1CCN(CCCCC2CNc3ccccc32)CC1 (stereo not drawn) [Compound 13d, 2,3-Dihydro-3-[4-(4-(2-methoxyphenyl)-1-piperidinyl)-1-butyl]indol]
- IC50: 2.1 nM

Structure (SMILES): Fc1ccc(-n2cc(OCCN3CCC4(CC3)OCc3ccccc34)c3cc(Cl)ccc32)cc1 [Compound 14a, 1'-[2-[5-Chloro-1-(4-fluorophenyl)-3-indolyloxy]-1-ethyl]spiro[isobenzofuran-1(3H)piperidine]]
- IC50: 24 nM

Structure (SMILES): Fc1ccc(C2CCN(CCOc3cn(-c4ccc(F)cc4)c4ccc(Cl)cc34)CC2)cc1 [Compound 14b]
- IC50: 3.8 nM

Structure (SMILES): Fc1ccc2occ(CCCN3CCC4(CC3)OCc3ccccc34)c2c1 [Compound 15, 1'-[3-(5-Fluorobenzofuran-3-yl)-1-propyl)spiro[isobenzofuran-1(3H) ,4'-piperidine]]
- IC50: 0.42 nM

Structure (SMILES): Fc1ccc2occ(CCCCN3CCC4(CC3)OCc3ccccc34)c2c1 [Compound 16, 1'-[4-(5-Fluorobenzofuran-3-yl)-1-butyl]-spiro[isobenzofuran-1(3H) ,4'-piperidine]]
- IC50: 0.15 nM

Structure (SMILES): Fc1ccc(-n2nc(CCCCN3CCC4(CC3)OCc3ccccc34)c3cc(C(F)(F)F)ccc32)cc1 [Compound 17a, 1'-[4-[1-(4-Fluorophenyl)-5-trifluoromethylindazol-3-yl]-1-butyl]spiro[isobenzofuran-1(3H),4'-piperidine]]
- IC50: 0.11 nM

Structure (SMILES): FC(F)(F)c1ccc2[nH]nc(CCCCN3CCC4(CC3)OCc3ccccc34)c2c1 [Compound 18a, 1'-[4-(5-Trifluoromethylindazol-3-yl)-1-butyl]-spiro[isobenzofuran-1(3H),4'-piperidine]]
- IC50: 0.56 nM

Structure (SMILES): c1ccc2c(c1)COC21CCN(CCCCc2noc3ccccc23)CC1 [Compound 19a, 1'-(4-(1,2-Benzisoxazol-3-yl)-1-butyl)spiro[isobenzofuran-1(3H) ,4'-piperidine]]
- IC50: 0.08 nM

Structure (SMILES): Fc1ccc(C2CCN(CCCCc3noc4ccccc34)CC2)cc1 [Compound 19b, 3-[4-(4-(4-Fluorophenyl)-1-piperidyl)-1-butyl]-1,2-benzisoxazole]
- IC50: 0.49 nM

Structure (SMILES): c1ccc2c(c1)COC1(CCN(CCCCc3noc4ccccc34)CC1)C2 [Compound 19c, 1-(4-(1,2-Benzisoxazol-3-yl)-1-butyl)spiro[3H-2-benzopyran-3,4'-piperidine]]
- IC50: 0.84 nM

Structure (SMILES): Clc1cccc(Cl)c1C1CCN(CCCCc2noc3ccccc23)CC1 [Compound 19d, 3-[4-(4-(2,6-Dichlorophenyl)-1-piperidyl)-1-butyl]-1,2-benzisoxazol]
- IC50: 4.4 nM

Structure (SMILES): c1ccc2c(c1)COC21CCN(CCCc2noc3ccccc23)CC1 [Compound 20, 1'-(3-(1,2-Benzisoxazol-3-yl)-1-propyl)spiro[isobenzofuran-1(3H) ,4'-piperidine]]
- IC50: 0.63 nM

Structure (SMILES): Fc1ccc(C2CCN(CCCOc3nsc4ccccc34)CC2)cc1 [Compound 21, 3-[3-(4-(4-Fluorophenyl)-piperidin-1-yl)-1-propyloxy]-1,2-benzisothiazole]
- IC50: 0.2 nM

Structure (SMILES): c1ccc2c(c1)COC21CCN(CCCCc2nsc3ccccc23)CC1 [Compound 22, 1'-(4-(1,2-Benzisothiazol-3-yl)-1-butyl)spiro[isobenzofuran-1(3H),4'-piperidine]]
- IC50: 0.05 nM

Structure (SMILES): Fc1ccc(C2=CC3CCC(C2)N3CCCCc2cn(-c3ccc(F)cc3)c3ccccc23)cc1 (stereo not drawn) [Compound 23, 1-(4-Fluorophenyl)-3-[4-[3-(4-fluorophenyl)-8-azabicyclo[3,2,1]-oct-2-en-8-yl]-1-butyl]-indol]
- IC50: 2.5 nM

Structure (SMILES): Fc1ccc(C2CC3CCC(C2)N3CCCCc2noc3ccccc23)cc1 (stereo not drawn) [Compound 24]
- IC50: 1.9 nM

Structure (SMILES): c1ccc(CCCCN2CCC3(CC2)Oc2ccccc2O3)cc1 [Compound 25a, 1'-(4-Phenyl-1-butyl)-spiro[1,3-benzodioxole-2,4'-piperidine]]
- IC50: 11 nM

Structure (SMILES): c1ccc2c(c1)OC1(CCN(CCCCc3c[nH]c4ccccc34)CC1)O2 [Compound 25b, 1'-[4-(3-Indolyl)-1-butyl]-spiro[1.3-benzodioxole-2,4'-piperidine]]
- IC50: 36 nM

Structure (SMILES): OC(CCCN1CCC2(CC1)OCc1ccccc12)c1ccc(F)cc1 (stereo not drawn) [Compound 26a, 1'-[4-(4-Fluorophenyl)-4-hydroxy-1-butyl]-spiro[isobenzofuran-1(3H),4'-piperidine]]
- IC50: 0.89 nM

Structure (SMILES): OC(CCCN1CCC2(CC1)OCc1ccccc12)c1ccccc1 (stereo not drawn) [Compound 26b, 1'-(4-Phenyl-4-hydroxy-1-butyl)-spiro[isobenzofuran-1(3H),4'-piperidine]]
- IC50: 1.9 nM

Structure (SMILES): OC(CCCN1CCC2(CC1)OCc1ccccc12)C1CCCCC1 (stereo not drawn) [Compound 26c, 1'-(4-Cyclohexyl-4-hydroxy-1-butyl)spiro[isobenzofuran-1(3h),4'-piperidine]]
- IC50: 0.14 nM

Structure (SMILES): C1=C(CCCCN2CCC3(CC2)OCc2ccccc23)c2ccccc2C1 [Compound 27, 1'-(4-(1H-Inden-3-yl)-1-butyl)-spiro[isobenzofuran-1(3H) ,4'-piperidine]]
- IC50: 0.11 nM

Structure (SMILES): c1ccc2c(c1)CCC2CCCCN1CCC2(CC1)OCc1ccccc12 (stereo not drawn) [Compound 28, 1'-[4-(Indan-1-yl)-1-butyl]-spiro(isobenzofuran-1(3H),4'-piperidine]]
- IC50: 0.15 nM

Structure (SMILES): C(=CC1CCc2ccccc21)CCN1CCC2(CC1)OCc1ccccc12 (stereo not drawn) [Compound 29, 1'-[4-(1-Indanyl)-but-3-en-1-yl]-spiro[isobenzofuran-1(3H),4'-piperidine]]
- IC50: 0.12 nM

Structure (SMILES): Fc1ccc(N2CC(CCCCN3CCC4(CC3)OCc3ccccc34)c3ccccc32)cc1 (stereo not drawn) [Compound 30, 1'-(4-(2,3-Dihydro-1-(4-fluorophenyl)-3-indolyl)-1-butyl)spiro[isobenzofuran-1(3H),4'-piperidine]]
- IC50: 0.07 nM

Structure (SMILES): c1ccc2c(c1)COC21CCN(CCCSc2csc3ccccc23)CC1 [Compound 31a]
- IC50: 0.23 nM

Structure (SMILES): c1ccc2c(c1)COC1(CCN(CCCSc3csc4ccccc34)CC1)C2 [Compound 31b, 1'-[3-(Benzo[b]thiophen-3-ylthio)-1-propyl] spiro[3H-2-benzopyran-3,4'-piperidine]]
- IC50: 2.6 nM

Structure (SMILES): O=S1(=O)CC(=CCCCN2CCC3(CC2)OCc2ccccc23)c2ccccc21 [Compound 32, 1'-[4-(2. 3-Dihydro-benzo[b]thiophen-3-yliden)-1-butyl]spiro[isobenzofuran-1(3H),4'-piperidine]-S,S-dioxide]
- IC50: 0.89 nM
